In BindingDB's records for doi:10.1016/j.ejmech.2023.115410 (Jawaharlal Nehru University, 2023):

Tests used:
[1] = Inhibition of […] Influenza A Taiwan 3446 2002(H3N2) neuraminidase infected in dog MDCK cells using MU-NANA as substrate assessed as reduction in viral replication incubated for 72 hrs by spectrofluorometric analysis
[2] = Inhibition of avian Influenza A virus SN 33 (H1N1) neuraminidase infected in dog MDCK cells using MU-NANA as substrate assessed as reduction in viral replication incubated for 72 hrs by spectrofluorometric analysis

| Compound | IC50 [1] [nM] | IC50 [2] [nM] |
| --- | --- | --- |
| CC(=O)N[C@H]1[C@H]([C@H](O)[C@H](O)CO)OC(C(=O)O)=C[C@@H]1NC(=N)NC(=O)CSc1ccc2ccccc2c1 | 25 | 20 |
| CC(=O)N[C@H]1[C@H]([C@H](O)[C@H](O)CO)OC(C(=O)O)=C[C@@H]1NC(=N)NC(=O)CCc1ccc2ccccc2c1 | 67 | 75 |
